According to PMC7037546, “High Cell Selectivity and Bactericidal Mechanism of Symmetric Peptides Centered on D-Pro–Gly Pairs” (International Journal of Molecular Sciences, 2020):
Converted amounts (≈) assume the structure as drawn. Non-standard residues stand in square brackets, D forms with d. Residues, ends and D or L forms follow the SMILES beside them. No end group written: not given here.

Assays:
[1] = test system: Escherichia coli ATCC25922; test: microbe, parasite or virus in culture; conditions: ATCC25922, 16 h
Protocol: (§1) The antimicrobial activity of the designed peptides was examined using the micro-dilution method described previously. The bacteria were cultured for 16 h in MHB at 37 °C, and the microbial suspension was diluted to a final concentration of 10^5 colony-forming units (CFU)/mL. Then, 50 µL of MHB containing different concentrations peptides (0.25–256 µM) was mixed with 50 µL of bacterial solution, and the mixture was added to a 96-well plate. […] The assays were performed three times.

[2] = test system: RAW 264.7 cells; test: Cytotoxicity, CCK-8 assay; format: cell-based, murine; conditions: 64 μM peptide, 16 h, CCK-8, OD 450 nm
Protocol: (§2) The cytotoxicity was detected according to a CCK-8 assay as described previously. Briefly, RAW 264.7 and HEK293T cells were placed into 96-well plates at a density of 1.0–2.0 × 10^5, and then cultured for 16 h under conditions of 5% CO2. Then, two-fold diluted peptides in DMEM were added to the plates. After 16 h of culturing, CCK-8 (10%, v/v) was put into each well containing cell culture, and mixtures were cultured for 2 h. The cytotoxicity assay was examined by measuring the OD of the mixtures at 450 nm (Microplate reader, TECAN GENios F129004, Tecan, Salzburg, Austria). The assays were performed three times.

[3] = test system: HEK293T cells; test: Cytotoxicity, CCK-8 assay; format: cell-based, human; conditions: 64 μM peptide, 16 h, CCK-8, OD 450 nm
Protocol: as §2

[4] = test system: Staphylococcus aureus ATCC25923; conditions: ATCC25923, 16 h
Protocol: as §1

[5] = test system: S. aureus ATCC29213; conditions: ATCC29213, 16 h
Protocol: as §1

[6] = test system: methicillin-resistant S. aureus ATCC43300; conditions: ATCC43300, 16 h
Protocol: as §1

[7] = test system: Pseudomonas aeruginosa ATCC27853; conditions: ATCC27853, 16 h
Protocol: as §1

[8] = test system: Gram-negative bacteria; conditions: 16 h
Protocol: as §1

[9] = test system: Salmonella Pullorum NCTC5776; conditions: NCTC5776, 16 h
Protocol: as §1

[10] = test system: Enterococcus faecalis ATCC29212; conditions: ATCC29212, 16 h
Protocol: as §1

[11] = test system: E. coli K88; conditions: micro-dilution in MHB, 10^5 CFU/mL, 16 h, OD 492 nm, performed three times
Protocol: as §1

[12] = test system: Klebsiella pneumonia CMCC46117; conditions: CMCC46117, 16 h
Protocol: as §1

[13] = test system: E. coli ATCC25922; format: cell-based, Escherichia coli; conditions: for MIC after pH treatment, pH 4 / MIC after pH treatment, pH 6 / MIC after pH treatment, pH 8 / MIC after pH treatment, pH 10: ATCC25922, 1 h; for MIC after temperature treatment, 0 °C / MIC after temperature treatment, 37 °C / MIC after temperature treatment, 100 °C / MIC in the presence of FeCl3 / MIC in the presence of KCl / MIC in the presence of MgCl2 / MIC in the presence of NH4Cl / MIC in the presence of NaCl / MIC in the presence of ZnCl2 / MIC, Control / MIC, Control (pH 7): ATCC25922, 16 h
Protocol: as §1
The salt, temperature, and pH sensitivities of designed peptides were determined by MIC assay as described previously. For the salt sensitivity assay, peptides were diluted in deionized water containing different salts, and mixed with E. coli ATCC25922 (10^5 CFU/mL). The final physiological concentrations of different salts were as follows: 150 mM NaCl, 4.5 mM KCl, 6 μM NH4Cl, 1 mM MgCl2, 8 μM ZnCl2, and 4 μM FeCl3. For temperature sensitivity, peptides were cooled on ice for 10 min, and incubated at 37 °C and 100 °C for 30 min. For pH sensitivity, peptides were treated with different pH for 1 h. Briefly, peptides were diluted in deionized water, and the pH of the solution was adjusted to 4.0, 6.0, 8.0, and 10.0 with HCl or NaOH. The subsequent steps were the same as for the MIC measurements. These tests were performed three times.

[14] = test system: Gram-positive bacteria; test: Geometric mean of MICs and therapeutic index, Gram (+); format: cell-based; conditions: geometric mean over the Gram-positive strains of Table 2; 256 μM used when no activity at 128 μM
Protocol: as §1

| Compound | cell survival rate [2] | MIC [1] | cell survival rate [3] | MIC [4] | MIC [5] | MIC [6] | MIC [7] | GM (geometric mean of MICs), Gram (−) [8] | MIC [9] | MIC [10] | MIC [11] | MIC [12] | MIC after pH treatment, pH 4 [13] | MIC after pH treatment, pH 6 [13] | MIC after pH treatment, pH 8 [13] | MIC after pH treatment, pH 10 [13] | MIC after temperature treatment, 0 °C [13] | MIC after temperature treatment, 37 °C [13] | MIC after temperature treatment, 100 °C [13] | MIC in the presence of FeCl3 [13] | further results |
| --- | --- | --- | --- | --- | --- | --- | --- | --- | --- | --- | --- | --- | --- | --- | --- | --- | --- | --- | --- | --- | --- |
| O=C(N[C@H](CO)[C@H](O)c1ccc([N+](=O)[O-])cc1)C(Cl)Cl [chloramphenicol, reference compound] |  |  |  |  |  |  |  |  |  |  |  |  |  |  |  |  |  |  |  |  | MIC ([1]; Escherichia coli): 8 µM (≈ 2.59 µg/mL) |
| [H]/N=C(/N)N[C@H]1[C@H](O)[C@@H](O)[C@H](O[C@@H]2O[C@@H](C)[C@](O)(C=O)[C@H]2O[C@@H]2O[C@@H](CO)[C@H](O)[C@@H](O)[C@@H]2NC)[C@@H](N/C(N)=N\[H])[C@@H]1O [streptomycin, reference compound] |  |  |  |  |  |  |  |  |  |  |  |  |  |  |  |  |  |  |  |  | MIC ([1]; Escherichia coli): 2 µM (≈ 1.16 µg/mL) |
| IIRIIRRGGRRIIRII-NH2 [IRGG] | 95% | 8 µM | 96% | >128 µM | >128 µM | >128 µM | 32 µM | 21.1 µM | 32 µM | >128 µM | 16 µM | 32 µM | 16 µM | 8 µM | 8 µM | 16 µM | 8 µM | 8 µM | 8 µM | 8 µM | MIC in the presence of KCl [13]: 8 µM; MIC in the presence of MgCl2 [13]: 16 µM; MIC in the presence of NH4Cl [13]: 8 µM; MIC in the presence of NaCl [13]: 64 µM; MIC in the presence of ZnCl2 [13]: 16 µM; MIC, Control [13]: 8 µM; MIC, Control (pH 7) [13]: 8 µM; GM (geometric mean of MICs), Gram (+) [14]: 256 µM |
| CC(C)C[C@H](NC(=O)CN)C(=O)N[C@@H](CCCNC(=N)N)C(=O)N[C@@H](CC(C)C)C(=O)N[C@@H](CC(C)C)C(=O)N[C@@H](CCCNC(=N)N)C(=O)N[C@@H](CCCNC(=N)N)C(=O)N[C@@H](CC(C)C)C(=O)N[C@@H](CC(C)C)C(=O)N[C@@H](CCCNC(=N)N)C(=O)N[C@@H](CCCNC(=N)N)C(=O)N[C@@H](CC(C)C)C(=O)N[C@@H](CC(C)C)C(=O)N[C@@H](CCCNC(=N)N)C(=O)N[C@@H](CC(C)C)C(=O)N1CCC[C@@H]1C(N)=O [LRα] (H-GLRLLRRLLRRLLRL[dP]-NH2) | less than 10% | 2 µM (≈ 4.03 µg/mL) | less than 10% | 4 µM (≈ 8.05 µg/mL) | 8 µM (≈ 16.1 µg/mL) | 8 µM (≈ 16.1 µg/mL) | 4 µM (≈ 8.05 µg/mL) | 3 µM | 2 µM (≈ 4.03 µg/mL) | 16 µM (≈ 32.2 µg/mL) | 4 µM (≈ 8.05 µg/mL) | 4 µM (≈ 8.05 µg/mL) | 2 µM | 2 µM | 2 µM | 4 µM | 2 µM (≈ 4.03 µg/mL) | 2 µM (≈ 4.03 µg/mL) | 2 µM (≈ 4.03 µg/mL) | 2 µM | MIC in the presence of KCl [13]: 2 µM; MIC in the presence of MgCl2 [13]: 2 µM; MIC in the presence of NH4Cl [13]: 2 µM; MIC in the presence of NaCl [13]: 8 µM; MIC in the presence of ZnCl2 [13]: 2 µM; MIC, Control [13]: 2 µM (≈ 4.03 µg/mL); MIC, Control (pH 7) [13]: 2 µM; GM (geometric mean of MICs), Gram (+) [14]: 8 µM |
| LLRLLRRGGRRLLRLL-NH2 [LRGG] | 84% | 2 µM | 91% | 16 µM | 16 µM | 32 µM | 8 µM | 4.6 µM | 4 µM | 32 µM | 4 µM | 8 µM | 2 µM | 2 µM | 2 µM | 4 µM | 2 µM | 2 µM | 2 µM | 2 µM | MIC in the presence of KCl [13]: 2 µM; MIC in the presence of MgCl2 [13]: 4 µM; MIC in the presence of NH4Cl [13]: 2 µM; MIC in the presence of NaCl [13]: 8 µM; MIC in the presence of ZnCl2 [13]: 2 µM; MIC, Control [13]: 2 µM; MIC, Control (pH 7) [13]: 2 µM; GM (geometric mean of MICs), Gram (+) [14]: 22.6 µM |
| CO/N=C(\C(=O)N[C@@H]1C(=O)N2C(C(=O)O)=C(COC(C)=O)CS[C@H]12)c1csc(N)n1 [cefotaxime, reference compound] |  |  |  |  |  |  |  |  |  |  |  |  |  |  |  |  |  |  |  |  | MIC ([1]; Escherichia coli): 2 µM (≈ 0.911 µg/mL) |
| O=C(O)c1cn(C2CC2)c2cc(N3CCNCC3)c(F)cc2c1=O [ciprofloxacin, reference compound] |  |  |  |  |  |  |  |  |  |  |  |  |  |  |  |  |  |  |  |  | MIC ([1]; Escherichia coli): 8 µM (≈ 2.65 µg/mL) |
| N=C(N)NCCC[C@H](NC(=O)CNC(=O)[C@H]1CCCN1C(=O)[C@H](CCCNC(=N)N)NC(=O)[C@H](CCCNC(=N)N)NC(=O)[C@H](Cc1ccccc1)NC(=O)[C@H](Cc1ccccc1)NC(=O)[C@H](CCCNC(=N)N)NC(=O)[C@H](Cc1ccccc1)NC(=O)[C@@H](N)Cc1ccccc1)C(=O)N[C@@H](CCCNC(=N)N)C(=O)N[C@@H](Cc1ccccc1)C(=O)N[C@@H](Cc1ccccc1)C(=O)N[C@@H](CCCNC(=N)N)C(=O)N[C@@H](Cc1ccccc1)C(=O)N[C@@H](Cc1ccccc1)C(N)=O [FRpG] (H-FFRFFRR[dP]GRRFFRFF-NH2) | 78% | 8 µM (≈ 18.3 µg/mL) | 85% | 16 µM (≈ 36.6 µg/mL) | 16 µM (≈ 36.6 µg/mL) | 32 µM (≈ 73.1 µg/mL) | 32 µM (≈ 73.1 µg/mL) | 13.9 µM | 16 µM (≈ 36.6 µg/mL) | 32 µM (≈ 73.1 µg/mL) | 8 µM (≈ 18.3 µg/mL) | 16 µM (≈ 36.6 µg/mL) | 16 µM | 8 µM | 8 µM | 32 µM | 8 µM (≈ 18.3 µg/mL) | 8 µM (≈ 18.3 µg/mL) | 8 µM (≈ 18.3 µg/mL) | 8 µM | MIC in the presence of KCl [13]: 8 µM; MIC in the presence of MgCl2 [13]: 8 µM; MIC in the presence of NH4Cl [13]: 8 µM; MIC in the presence of NaCl [13]: 32 µM; MIC in the presence of ZnCl2 [13]: 8 µM; MIC, Control [13]: 8 µM (≈ 18.3 µg/mL); MIC, Control (pH 7) [13]: 8 µM; GM (geometric mean of MICs), Gram (+) [14]: 22.6 µM |
| FFRFFRRGGRRFFRFF-NH2 [FRGG] | 66% | 8 µM | 76% | 32 µM | 16 µM | 32 µM | 32 µM | 16 µM | 16 µM | 32 µM | 16 µM | 16 µM | 32 µM | 8 µM | 8 µM | 32 µM | 8 µM | 8 µM | 8 µM | 8 µM | MIC in the presence of KCl [13]: 8 µM; MIC in the presence of MgCl2 [13]: 16 µM; MIC in the presence of NH4Cl [13]: 8 µM; MIC in the presence of NaCl [13]: 64 µM; MIC in the presence of ZnCl2 [13]: 16 µM; MIC, Control [13]: 8 µM; MIC, Control (pH 7) [13]: 8 µM; GM (geometric mean of MICs), Gram (+) [14]: 26.9 µM |
